Like-named read-outs stand apart in the source and are kept apart here.
Legend:
[1] = tested on: Interleukin 6 (IL-6) secretion in C2C12 cells; assay: IL-6 secretion (ELISA) of differentiated C2C12 cells exposed to pro-inflammatory cytokine mix (cytomix); assay type: cell-based
Method: C2C12 Myoblasts, purchased from the American Type Culture Collection (ATCC) (ref. CRL-1772), were seeded at 8000 cells per well in a 96 well plate (Greiner, Kremsmünster, Austria) using a DMEM Glutamax 4.5 g D-glucose (Gibco, ref 31966021) supplemented with foetal bovine serum (FBS) 10% (PanBiotech, ref P190902), 1% PenStrep (Biowest) and 1% HEPES (Biowest). Cells were then differentiated for 6 days using a differentiation medium (DMEM Glutamax 4.5 g D-glucose (Gibco, ref 31966021), 2% Horse serum (Thermofisher, ref 160501229) 1% PenStrep and 1% HEPES). All the media were sterilized with a 0.45 μm filter unit (VWR). […] The medium was collected and an ELISA for Interleukin-6 were performed following the instruction provided by the supplier (Proteintech ref. KE10007). Finally, the absorbance at a wavelength of 450 nm was measured using a microplate plate reader (Fluostar Optima, BMG Labtech).

[2] = tested on: inflammation in certain cell-based models; settings: cited from earlier work

O=c1oc2cc(O)ccc2c2ccc(O)cc12 [Urolithin A]
reduction of IL-6 secretion ([1]; UA 6.25 μM alone, 24 h pre-treatment then cytomix 24 h): 25%
reduction of IL-6 secretion ([1]; UA 12.5 μM alone, 24 h pre-treatment then cytomix 24 h): 60%

CC(O)CC(=O)[O-].[Na+] (racemic) [BHB, DL-β-Hydroxybutyric acid sodium salt]
impact on IL-6 secretion ([1]; BHB 5 μM alone, cytomix): −0.007%
reduction of IL-6 secretion ([1]; higher dose of BHB alone, cytomix): 32%
concentration at which the anti-inflammatory effect of BHB was observed ([2]; PMC6402511): > 250 µM
concentration at which the anti-inflammatory effect of BHB was observed ([2]; PMID: 25686106): above 2 mM
